Columns and labels:
[1] = Particle size distribution, MALVERN MASTERSIZER 3000, Hydro MV wet dispersion (wet analysis); format: physicochemical; settings: wet analysis method; starting material before milling
Method: The particle size distribution for the micronized glycopyrrolate formulations was determined by MALVERN MASTERSIZER® 3000 using the Hydro MV wet dispersion unit as follows: the dispersion unit was filled with iso-octane (2,2,4-trimethylpentane). The pump speed was set to 3000 rpm. Ten millilitres of 0.1% lecithin in iso-octane was added to approximately 10 mg of the micronized glycopyrrolate formulation, this pre-dispersion was then sonicated for 3 minutes using a Sonopuls sonic probe at 50% intensity. The dispersed particles were added to the dispersion unit to reach an obscuration of 5-15%. The optical properties used included a refractive index of 1.52 and an absorption value of 1.0 for the glycopyrrolate, and a refractive index of 1.45 and an absorption value of 1.0 for the magnesium stearate and a refractive index of 1.391 for the iso-octane. Six replicates were performed per measurement.

[2] = Particle size distribution, MALVERN MASTERSIZER 3000, Aero S dry dispersion method at 4 Bar; format: physicochemical; settings: unmicronised source powder
Method: The particle size distribution for unmicronised glycopyrrolate was determined by MALVERN MASTERSIZER analysis (MALVERN MASTERSIZER® 3000, using the Aero S dry dispersion method at 4 Bar) and found to be D10=11.3 μm, D50=98.0 μm, D90=281 μm (see FIG. 1).
The particle size distributions for Formulation 1 (D10=0.283 μm, D50=1.66 μm, D90=5.40 μm) and Formulation 2 (D10=0.270 μm, D50=1.41 μm, D90=3.66 μm were determined by MALVERN MASTERSIZER® analysis (MALVERN MASTERSIZER® 3000, using the Aero S dry dispersion method at 4 Bar). These are reported in FIGS. 4 and 8 respectively and Table 1 below.
The particle size distribution for the micronized glycopyrrolate formulations was determined by MALVERN MASTERSIZER® analysis (MALVERN MASTERSIZER® 3000, using the Aero S dry dispersion method at 4 Bar and a feed rate of between 30-40%). The optical properties used included a refractive index of 1.52 and an absorption value of 1.0.

Row | Compound | D10 [1] | D50 [1] | D90 [1] | D10 [2] | D50 [2] | D90 [2] | cumulative fraction under 5 μm ([2]; stored sealed)
1 | magnesium stearate | 2.8 μm | 8.8 μm | 27.4 μm |  |  |  | 
2 | C[N+]1(C)CCC(OC(=O)C(O)(c2ccccc2)C2CCCC2)C1 (stereo not shown) [unmicronised glycopyrrolate, glycopyrrolate] | 20.6 μm | 148.7 μm | 409.7 μm | 11.3 μm | 98.0 μm | 281 μm | 4.68%
